Measurements from ChEMBL document CHEMBL5260850, “The exploration of aza-quinolines as hematopoietic prostaglandin D synthase (H-PGDS) inhibitors with low brain exposure” (Bioorg Med Chem, 2020).
Values after ≈ are worked out from the molar mass of the structure shown.

What was measured:
[1] = biological target: Hematopoietic prostaglandin D synthase (Homo sapiens, UniProt O60760); test: Inhibition of human H-PGDS expressed in Escherichia coli BL21 DE3 cells assessed as reduction in PGD2 production using PGH2 as substrate by RapidFire High Throughput Mass spectrometry
Hematopoietic prostaglandin D synthase (Homo sapiens, UniProt O60760), sequence (O60760 whole entry): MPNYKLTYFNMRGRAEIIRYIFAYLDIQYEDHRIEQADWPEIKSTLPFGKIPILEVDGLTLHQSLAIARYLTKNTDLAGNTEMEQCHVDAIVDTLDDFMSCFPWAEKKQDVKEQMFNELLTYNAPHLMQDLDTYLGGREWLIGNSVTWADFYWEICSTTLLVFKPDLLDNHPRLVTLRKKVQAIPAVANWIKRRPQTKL

[2] = biological target: T1, Hematopoietic prostaglandin D synthase (Rattus norvegicus, UniProt O35543); test: Inhibition of H-PGDS in rat RBL cells assessed as reduction in A23187-induced PGD2 production pretreated for 30 mins followed by A23187 addition for 30 mins by RapidFire Mass spectrometry; assay type: cell-based
T1 sequence (O35543 whole entry): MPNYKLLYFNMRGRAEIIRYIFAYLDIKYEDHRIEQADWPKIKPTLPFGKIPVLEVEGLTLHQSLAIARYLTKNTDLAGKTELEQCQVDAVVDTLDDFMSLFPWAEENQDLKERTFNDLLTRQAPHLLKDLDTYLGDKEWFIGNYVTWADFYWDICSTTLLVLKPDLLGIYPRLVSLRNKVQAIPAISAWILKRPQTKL

[3] = Dissociation constant, pKa of the compound by UV spectroscopy or potentiometric analysis; assay type: physicochemical
[4] = Half life in mouse liver microsomes pretreated for 5 mins followed by incubation with NADP for 30 secs and measured upto 45 mins by LC-MS/MS analysis; assay type: ADME, Microsome; settings: time 3030 sec
Albumin = Albumin (Homo sapiens, UniProt P02768); test: Protein binding in human serum albumin by HPLC analysis; assay type: ADME, cell-free; settings: read-out: PB (converted)
Albumin, sequence (P02768 whole entry): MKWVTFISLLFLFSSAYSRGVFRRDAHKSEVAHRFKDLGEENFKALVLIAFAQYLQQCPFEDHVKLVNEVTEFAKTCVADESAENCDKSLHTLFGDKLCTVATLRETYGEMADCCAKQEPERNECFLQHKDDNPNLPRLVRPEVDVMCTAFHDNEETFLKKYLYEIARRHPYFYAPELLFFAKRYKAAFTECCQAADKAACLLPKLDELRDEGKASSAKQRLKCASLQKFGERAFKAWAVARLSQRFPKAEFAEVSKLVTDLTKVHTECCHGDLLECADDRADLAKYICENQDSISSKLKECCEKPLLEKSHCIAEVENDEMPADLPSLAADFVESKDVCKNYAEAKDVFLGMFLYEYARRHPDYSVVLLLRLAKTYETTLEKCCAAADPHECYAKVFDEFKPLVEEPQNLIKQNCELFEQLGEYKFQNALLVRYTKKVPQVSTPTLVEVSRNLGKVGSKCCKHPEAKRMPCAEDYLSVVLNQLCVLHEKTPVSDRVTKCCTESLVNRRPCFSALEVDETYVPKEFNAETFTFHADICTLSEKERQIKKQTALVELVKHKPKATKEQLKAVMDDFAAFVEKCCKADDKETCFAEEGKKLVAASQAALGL

[5] = Solubility of the compound in FaSSIF at pH 6.5 measured after 4 hrs by HPLC-UV analysis; assay type: ADME
[6] = Apparent permeability, Papp of the compound at pH 7.4 incubated for 3 hrs by AMP based liquid chromatography; assay type: ADME; settings: not told
[7] = Dose normalized AUC in mouse at 3 mg/kg, po; assay type: ADME, organism-based; set-up: unit not given here; settings: in vivo

Row | Compound | IC50 [1] [nM] | EC50 [2] [nM] | pKa [3] | half-life [4] [h] | fraction unbound (Albumin) | solubility at 4 h [5] [µg/mL] | Papp at 3 h [6] [×10⁻⁶ cm/s] | AUC/dose [7] | EC50 ([2]; rbl) [nM]
1 | CC(C)(O)[C@H]1CC[C@H](NC(=O)c2cnc3nc(NCC(F)F)ccc3c2)CC1 | 150 | 12000 | – | – | – | – | – | – | –
2 | COc1ccc2nc(C(=O)N[C@H]3CC[C@H](C(C)(C)O)CC3)cnc2c1 | 490 | 3200 | < 2 | – | – | – | – | – | –
3 | O=C(N[C@H]1CCNC1=O)c1cnc2nc(C3CC3)c(Cl)cc2c1 | 4.6 | 14 | – | > 3 | 0.19 | 120 (≈ 363 µM) | 3 | 252 | –
4 | C[C@H]1CCN1c1nc2ncc(C(=O)N[C@H]3CCNC3=O)cc2cc1Cl | 5.1 | 3.8 | – | > 3 | 0.19 | > 1000 | < 0.3 | 86.2 | –
5 | C[C@H]1CCN1c1nc2ncc(C(=O)N[C@H]3C[C@](C)(O)C3)cc2cc1Cl | 5 | 4.7 | – | – | – | – | – | – | –
6 | O=C(N[C@H]1CC[C@H](N2CC(F)C2)CC1)c1cnc2cc(C3CC3)ncc2c1 | 35 | 280 | – | > 3 | – | > 1000 | 27 | 358 | –
7 | C[C@]1(O)C[C@@H](NC(=O)c2cnc3nc(N4CCC4)ccc3c2)C1 | 140 | 17000 | – | – | – | – | – | – | –
8 | CC(C)(O)[C@H]1CC2(C[C@H](NC(=O)c3cnc4nc(C5CC5)ccc4c3)C2)C1 (some centres not stated) | 3.9 | 32 | – | > 3 | 0.14 | 35 (≈ 95.8 µM) | 4.5 | 477 | –
9 | C[C@]1(O)C[C@H](NC(=O)c2cnc3nc(C4CC4)ccc3c2)C1 | 300 | 7400 | – | – | – | – | – | – | –
10 | O=C(N[C@H]1CC[C@H](N[C@H](CO)C(F)(F)F)CC1)c1cnc2cc(C3CC3)ncc2c1 | 31 | 310 | – | > 3 | – | 100 (≈ 237 µM) | 18 | 693 | –
11 | CC(C)(O)C1CC2(CC(NC(=O)c3cnc4nc(C5CC5)ccc4c3)C2)C1 (configuration not stated) | 4.9 | – | – | > 3 | 0.14 | 34 (≈ 93 µM) | 5.4 | 441 | 29
12 | CC(N[C@H]1CC[C@H](NC(=O)c2cnc3nc(C4CC4)ccc3c2)CC1)C(F)F (mixture of isomers) | 11 | 28 | – | > 3 | 0.18 | > 1000 | 17 | 681 | –
13 | C[C@]1(O)C[C@@H](NC(=O)c2cnc3cc(C4CC4)ncc3c2)C1 | 290 | 910 | – | – | – | – | – | – | –
14 | CC(C)(O)[C@H]1CC[C@H](NC(=O)c2cnc3nc(NCC(F)(F)F)ccc3c2)CC1 | 690 | 9600 | – | – | – | – | – | – | –
15 | C[C@H]1CCN1c1nc2ncc(C(=O)N[C@H]3C[C@@](C)(O)C3)cc2cc1Cl | 5 | < 2.5 | – | – | – | – | – | – | –
16 | COc1ccc2c(c1)N=CN(C(=O)N[C@H]1CC[C@H](C(C)(C)O)CC1)C2 | 890 | 4300 | 4.31 | – | – | – | – | – | –
17 | CC(C)(O)[C@]12C[C@@](NC(=O)c3cnc4cc(C5CC5)ncc4c3)(C1)C2 | 38 | 210 | – | – | – | – | – | – | –

Row | Compound | IC50 [1] [nM] | EC50 [2] [nM] | pKa [3] | half-life [4] [h] | fraction unbound (Albumin) | solubility at 4 h [5] [µg/mL] | Papp at 3 h [6] [×10⁻⁶ cm/s] | AUC/dose [7] | EC50 ([2]; rbl) [nM]
18 | C[C@]1(O)C[C@@H](NC(=O)c2cnc3nc(C4CC4)ccc3c2)C1 | 160 | 1300 | – | – | – | – | – | – | –
19 | CC(C)(O)[C@H]1CC[C@H](NC(=O)c2cnc3nc(OCC(F)(F)F)ccc3c2)CC1 | 350 | 1100 | – | – | – | – | – | – | –
20 | O=C(N[C@H]1CCNC1=O)c1cnc2nc(N3CCC3)ccc2c1 | 71 | 6000 | – | – | – | – | – | – | –
21 | O=C(N[C@H]1CC[C@H](N2CC(F)(F)C2)CC1)c1cnc2nc(C3CC3)ccc2c1 | 14 | 50 | – | – | – | – | – | – | –
22 | C[C@]1(O)C[C@H](NC(=O)c2cnc3nc(C4CC4)c(Cl)cc3c2)C1 | 6.4 | 190 | – | > 3 | 0.14 | 700 (≈ 2110 µM) | 15 | 362 | –
23 | C[C@]1(O)C[C@@H](NC(=O)c2cnc3nc(C4CC4)c(Cl)cc3c2)C1 | 7.1 | 54 | – | > 3 | 0.13 | 31 (≈ 93.4 µM) | 22 | 152 | –
24 | COc1ccc2cc(C(=O)N[C@H]3CC[C@H](C(C)(C)O)CC3)ccc2c1 | 1300 | > 50000 | – | – | – | – | – | – | –
25 | CC(C)(O)[C@H]1C[C@H](NC(=O)c2cnc3nc(C4CC4)ccc3c2)C1 | 36 | 280 | – | > 3 | 0.26 | 100 (≈ 307 µM) | – | 77.5 | –
26 | C[C@H]1CCN1c1nc2ncc(C(=O)N[C@H]3C[C@H](C(C)(C)O)C3)cc2cc1Cl | 3.1 | < 2.5 | – | – | – | – | – | – | –
27 | O=C(N[C@H]1CCNC1=O)c1cnc2cc(C3CC3)ncc2c1 | 110 | 260 | – | 2.45 | 0.57 | 430 (≈ 1450 µM) | 3 | 262 | –
28 | O=C(N[C@H]1CCNC1=O)c1cnc2nc(C3CC3)ccc2c1 | 44 | 640 | – | – | – | – | – | – | –
29 | C[C@H]1CCN1c1nc2ncc(C(=O)N[C@H]3CC[C@](C)(O)CC3)cc2cc1Cl | 4.6 | 3.7 | – | > 3 | 0.13 | 740 (≈ 1900 µM) | 11 | 132 | –
30 | COc1ccc2cc(C(=O)N[C@H]3CC[C@H](C(C)(C)O)CC3)nnc2c1 | 7900 | > 50000 | < 2 | – | – | – | – | – | –
31 | CC(C)(O)[C@H]1C[C@H](NC(=O)c2cnc3nc(C4CC4)c(Cl)cc3c2)C1 | 3.9 | 11 | – | > 3 | 0.12 | 46 (≈ 128 µM) | 28 | 45.2 | –
32 | O=C(N[C@H]1CC[C@H](N2CC(F)(F)C2)CC1)c1cnc2cc(C3CC3)ncc2c1 | 14 | 88 | – | – | – | – | – | – | –
33 | CC(C)(O)[C@]12C[C@@](NC(=O)c3cnc4nc(C5CC5)ccc4c3)(C1)C2 | 17 | 230 | – | > 3 | 0.31 | 400 (≈ 1190 µM) | 3.4 | 285 | –

More lines, now with the values ahead:

Row | IC50 [1] [nM] | EC50 [2] [nM] | pKa [3] | half-life [4] [h] | fraction unbound (Albumin) | solubility at 4 h [5] [µg/mL] | Papp at 3 h [6] [×10⁻⁶ cm/s] | AUC/dose [7] | EC50 ([2]; rbl) [nM] | Compound
34 | 4.7 | 5.2 | – | – | – | – | – | – | – | CC(C)(O)[C@H]1CC[C@H](NC(=O)c2cnc3nc(C4CC4)c(Cl)cc3c2)CC1
35 | 8.5 | 64 | – | – | – | – | – | – | – | CC(C)c1ccc2cc(C(=O)N[C@H]3CC[C@H](C(C)(C)O)CC3)cnc2n1
36 | – | 100 | 3.59 | – | – | – | – | – | – | COc1ccc2cc(C(=O)N[C@H]3CC[C@H](C(C)(C)O)CC3)cnc2c1
37 | 10 | 120 | – | – | – | – | – | – | – | CC(C)(O)[C@H]1CC[C@H](NC(=O)c2cnc3nc(C4CCC4)ccc3c2)CC1
38 | 2.4 | 3.9 | – | – | – | – | – | – | – | CC(C)(O)[C@H]1CC[C@H](NC(=O)c2cnc3nc(N4CCC4)c(Cl)cc3c2)CC1
39 | 6.4 | 170 | – | > 3 | 0.36 | – | 2.2 | 204 | – | CC(C)(O)[C@H]1CC[C@H](NC(=O)c2cnc3nc(C4CC4)ncc3c2)CC1
40 | 1800 | 30000 | 3.02 | – | – | – | – | – | – | CC(C)(O)[C@H]1CC[C@H](NC(=O)c2cnc3ccccc3c2)CC1
41 | 13 | 1000 | – | – | – | – | – | – | – | CC(C)(O)[C@H]1CC[C@H](NC(=O)c2cnc3nc(N4CC(F)C4)ccc3c2)CC1
42 | 37 | 260 | – | > 3 | 0.44 | 630 (≈ 1940 µM) | 1.4 | 715 | – | C[C@H]1CCN1c1cc2ncc(C(=O)N[C@H]3CCNC3=O)cc2cn1
43 | 3.8 | 3.9 | – | – | – | – | – | – | – | C[C@H]1CCN1c1nc2ncc(C(=O)N[C@H]3CC[C@H](C(C)(C)O)CC3)cc2cc1Cl
44 | 6.6 | 22 | – | – | – | – | – | – | – | COc1nc2ncc(C(=O)N[C@H]3CC[C@H](C(C)(C)O)CC3)cc2cc1Cl
45 | 7700 | 39000 | 2.74 | – | – | – | – | – | – | CC(C)(O)[C@H]1CC[C@H](NC(=O)c2cnc3cnccc3c2)CC1
46 | 65 | 280 | – | > 3 | 0.24 | 280 (≈ 860 µM) | 13 | 45.3 | – | CC(C)(O)[C@H]1C[C@H](NC(=O)c2cnc3cc(C4CC4)ncc3c2)C1
47 | 310 | 3000 | – | – | – | – | – | – | – | C[C@@H]1CCN1c1ccc2cc(C(=O)N[C@H]3CC[C@H](C(C)(C)O)CC3)cnc2n1
48 | 12 | 340 | – | 2.43 | 0.46 | 210 (≈ 568 µM) | < 1 | 23.4 | – | CC(C)(O)[C@H]1CC[C@H](NC(=O)c2cnc3nc(N4CCC4)ncc3c2)CC1
49 | 160 | 450 | – | – | – | – | – | – | – | C[C@@H]1CCN1c1cc2ncc(C(=O)N[C@H]3CC[C@H](C(C)(C)O)CC3)cc2cn1
50 | 4.8 | 50 | – | – | – | – | – | – | – | C[C@H]1CCN1c1cc2ncc(C(=O)N[C@H]3CC[C@H](C(C)(C)O)CC3)cc2cn1
51 | 140 | 2000 | < 2 | – | – | – | – | – | – | COc1ncc2cc(C(=O)N[C@H]3CC[C@H](C(C)(C)O)CC3)cnc2n1
52 | 180 | 740 | < 2 | – | – | – | – | – | – | COc1cnc2cc(C(=O)N[C@H]3CC[C@H](C(C)(C)O)CC3)cnc2c1
